In patent publication US7423017B2, “Method for treating cartilage disorders” (Genentech, Inc., priority 1997, dated 2008):
Read-outs that look alike come from different tables or passages of the source. Starred links: 1 amine or outer side, 2 acyl side, 3 side chain; linkers in the order of their positions; H or OH if unused. Positions of bridges follow the written chain, without caps; N, C: chain ends. Residues, ends and D or L forms follow the SMILES beside them. No end group written: not given here. Suc = O=C(CCC(=O)[*:2])[*:1]

Key:
IGFBP-3 [1] = molecular target: T1, IGFBP-3 (Homo sapiens, UniProt P17936); assay: BIACORE competition assay: IGFBP-3 binding to immobilized IGF-1; conditions: for IC50 (mut) / IC50 (wt): IGF-1 inhibition, wt = BP3-01-ox
T1 construct: made in house
T1 sequence (P17936 28-291): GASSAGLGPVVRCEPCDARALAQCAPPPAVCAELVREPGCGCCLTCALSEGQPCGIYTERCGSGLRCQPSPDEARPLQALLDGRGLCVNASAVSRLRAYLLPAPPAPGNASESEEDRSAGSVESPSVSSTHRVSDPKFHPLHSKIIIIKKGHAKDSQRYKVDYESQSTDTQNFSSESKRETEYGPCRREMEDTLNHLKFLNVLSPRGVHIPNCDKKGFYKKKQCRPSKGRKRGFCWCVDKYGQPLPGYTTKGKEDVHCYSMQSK
Description: IGF-1 was immobilized on a dextran chip for inhibition assays using a BIACORE™ 2000 surface-plasmon-resonance device (BIAcore, Inc., Piscataway, N.J.) to measure free binding protein. IGF-1 was biotinylated as described above, and injected over a chip to which streptavidin had been coupled (BIAcore, Inc.) to give 400 to 800 RU (response units) of immobilized IGF-1. […] Serial dilutions of peptide were mixed with a constant concentration (40 nM) of IGFBP-3. After incubation for >1 hour at room temperature, an aliquot of 20 μL was injected at a flow rate of 20 μL/min over the IGF-1 chip. Following the injection, a response reading was taken to measure the relative amount of IGFBP-3 bound to the IGF-1.

[2] = test system: human articular cartilage explants; assay: human articular cartilage explants from diseased joints: matrix synthesis (35S-sulfate uptake); format: cell-based
Description: The metacarpophalangeal joint of a six-month old pig was cultured as described above for bovine articular cartilage in Example 8. This explant was cultured in media alone or in media with D12K, D12R, or wild-type IGF-1 (at 10 nM) alone or in the presence of IL-1α at 1 ng/ml, as described above. Human explants were from patients undergoing joint replacement surgery. Articular cartilage was harvested, aliquoted (40-45 mg/tube) and cultured as above. […] Fresh media was added on days 0, 1, 2, and 3. Matrix breakdown was determined by measuring the amount of proteoglycans in the media using the DMMB assay as set forth above. Matrix (proteoglycan) synthesis was determined by measuring ^35S-sulfate uptake as set forth above.
Human articular cartilage explants were cultured in media or treated with IGF-1 by itself or in combination with either BP3-40 or BP3-15 at 0.1 mg/ml as set forth above. Matrix breakdown was determined by measuring the release of proteoglycans into media as described above. Matrix synthesis was determined by counting the amount of ^35S-sulfate incorporated into the cartilage tissue as described above.
The same Material and Methods (for human tissue) were used as described above, using articular cartilage explants from human joints removed from patients undergoing joint replacement. These explants were cultured with IGF-1 alone at 40 ng/ml, or IGF-1 with BP1-17, BP3-15, or BP1-16 (0.1 mg/ml), or IGF-1 with buffer (HEPES).

IGFBP-3 [3] = molecular target: T1, IGFBP-3; assay: competitive phage ELISA of IGF-1 mutants, IGFBP-3; format: binding
Description: (§1) An alanine-scanning mutagenesis approach (Cunningham and Wells, Science, 244: 1081-1085 (1989); U.S. Pat. No. 5,834,250) was used to remove that portion of each side chain of IGF-1 beyond the beta carbon. The contribution of these atoms to the free energy of binding of the IGF-1 analog to IGFBP-1 or to IGFBP-3 was then assessed by competitive phage ELISA. In this assay, IGFBP-1 or IGFBP-3 is used to inhibit IGF-phage mutants from binding to an IGFBP-1- or IGFBP-3-coated immunosorbant plate.
(§2) Immunosorbent plates (Nunc, MAXISORP™, 96 wells) were coated with 100 μl/well of 1 μg/ml IGFBP-1 or IGFBP-3 in PBS buffer pH 7.2 at 4° C. overnight. The plates were then blocked with 0.5% TWEEN 20™/PBS (also used as binding buffer) for 2 hours at room temperature (proteinaceous blocking agents like bovine serum albumin were avoided to prevent potential IGF or IGFBP contamination). E. coli cells (XL1-Blue, Stratagene) freshly transformed with phagemid vector were grown overnight in 5 mL 2YT medium (Sambrook et al., supra) in the presence of M13-VCS helper phage (Stratagene). Phage particles were harvested and resuspended in PBS buffer as described in Lowman, H. B., “Phage Display of Peptide Libraries on Protein Scaffolds,” in Cabilly, S. (ed.), Combinatorial Peptide Library Protocols (Humana Press Inc.: Totowa, N.J., 1998), pp. 249-264. Then phage concentrations were normalized to yield a maximal ELISA signal of 0.2-0.4 for each mutant (Lowman, in Cabilly, S. (ed.), supra). Threefold serial dilutions of soluble competitor were prepared on non-absorbent microtiter plates (Nunc, F, 96 wells) with binding buffer (0.5% TWEEN 20™/PBS) containing phage at the previously determined concentrations. The dilution range of competitor protein extended over six orders of magnitude, starting at 5 μM for IGFBP-1 and 500 nM for IGFBP-3. After blocking, the plates containing immobilized target were washed with 0.05% TWEEN™/PBS buffer and subsequently incubated with 80 μl/well of the premixed phage-competitor solutions for 1 hour at room temperature. After washing, bound phage was detected with 80 μl/well of a solution containing a primary rabbit anti-phage polyclonal antibody and a secondary goat anti-rabbit monoclonal antibody-horseradish peroxidase conjugate in 0.5% TWEEN 20™/PBS. o-Phenylenediamine (Sigma) and tetramethylbenzidine (Kirkegaard and Perry) were used as chromogenic substrates, resulting in product detection at 492 and 450 nm, respectively. IC50 values were determined by fitting the binding data to a generic saturation curve (Lowman, in Cabilly, S. (ed.), supra). At least two individual clones of each IGF-1 mutant were assayed. Numbers in Table XIII represent mean±standard deviation of individually assessed IC50 values.

IGFBP-1 [4] = molecular target: T2, IGFBP-1 (Homo sapiens, UniProt P08833); assay: competitive phage ELISA of IGF-1 mutants, IGFBP-1; format: binding; parameters: made in house; host or cells: CHO cells
T2 sequence (P08833 26-259): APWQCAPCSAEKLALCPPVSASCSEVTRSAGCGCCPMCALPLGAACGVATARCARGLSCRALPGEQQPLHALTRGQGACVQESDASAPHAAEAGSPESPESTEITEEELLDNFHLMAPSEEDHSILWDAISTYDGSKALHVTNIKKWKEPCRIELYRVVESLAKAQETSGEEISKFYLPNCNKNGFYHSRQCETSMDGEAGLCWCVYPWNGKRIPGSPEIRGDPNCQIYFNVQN
Description: as §1, §2

IGFBP-1 [5] = molecular target: T2, IGFBP-1; assay: BIACORE kinetics: IGFBP-1 binding to immobilized IGF-1 variants; parameters: made in house; host or cells: CHO cells; conditions: Table XVI; Y31C immobilized via disulfide linkage
Description: The binding affinities of the IGF variants for IGFBP-1 and IGFBP-3 were determined using a BIACORE™-2000 real time kinetic interaction analysis system (Biacore, Inc., Piscataway, N.J.) to measure association (ka) and dissociation (kd) rates. Carboxymethylated dextran biosensor chips (CM5, BIAcore Inc.) were activated with EDC (N-ethyl-N′-(3-dimethylaminopropyl)-carbodiimide hydrochloride) and NHS(N-hydroxysuccinimide) according to the supplier's instructions. For immobilization, IGF mutants in 20 mM sodium acetate, pH 4.8, were injected onto the biosensor chip at a concentration of 50 μg/ml to yield approximately 450-600 RU's (resonance-responce units) of covalently-coupled protein. Unreacted groups were blocked with an injection of 1 M ethanolamine. Kinetic measurements were carried out by injecting two-fold serial dilutions (starting at 1 μM) of either IGFBP-1 or IGFBP-3 in running buffer (PBS, 0.05% TWEEN 20™, 0.1% ovalbumin, 0.1% sodium azide) at 25 °C using a flow rate of 20 μl/min. Association rates (ka) and dissociation rates (kd) were calculated separately using a 1:1 Langmuir™ association model in the BIACORE™ evaluation software v. 3.0. The equilibrium dissociation constant (KD) was calculated as kd/ka.
For measurements of IGFBP-1 binding to IGF-1, kinetics experiments were conducted using a single-cysteine IGF-1 variant, Y31C, that was immobilized onto the sensor chip surface via a disulfide linkage (BIACORE™ System Manual Supplement, 5a-1, Pharmacia (1991)).

IGFBP-1 [6] = assay: competitive phage ELISA of IGF-1 mutants, IGFBP-1; format: binding, human; conditions: relative IC50 IGFBP-1/relative IC50 IGFBP-3
Description: as §1, §2

[7] = IC50 mut/IC50 G1S-A70V, listed as Ala(1-3)-IGF-1

Molecule: CSCC[C@H](NC(=O)[C@H](CC(N)=O)NC(=O)[C@@H]1CSSC[C@H](NC(=O)[C@@H](N)C(C)C)C(=O)N[C@@H](Cc2c[nH]c3ccccc23)C(=O)N2CCC[C@H]2C(=O)N[C@@H](C(C)C)C(=O)N[C@@H](C)C(=O)N[C@@H](CCC(=O)O)C(=O)N[C@@H](Cc2c[nH]c3ccccc23)C(=O)N[C@@H](Cc2ccc(O)cc2)C(=O)N[C@@H](CC(C)C)C(=O)N1)C(=O)N[C@@H](Cc1c[nH]c2ccccc12)C(=O)NCC(=O)O [BP3-16] (H-VCWPVAEWYLCNMWG-OH; disulfide 2-11; N-terminus and C-terminus assumed)
- IC50 (IGFBP-3 [1]): 30 µM

Molecule: CC[C@H](C)[C@@H]1NC(=O)[C@H](Cc2ccc(O)cc2)NC(=O)CNC(=O)[C@H](CCC(N)=O)NC(=O)[C@H](Cc2c[nH]cn2)NC(=O)[C@H](CCCNC(=N)N)NC(=O)[C@H](CC(=O)O)NC(=O)[C@H](Cc2c[nH]c3ccccc23)NC(=O)[C@@H](NC(=O)[C@@H](NC(=O)[C@H](CCC(=O)O)NC(=O)[C@H](Cc2c[nH]c3ccccc23)NC(=O)[C@H](C)N)C(C)C)CSSC[C@@H](C(=O)N[C@H](C(=O)N[C@H](C(=O)N[C@@H](CC(=O)O)C(=O)N[C@@H](CO)C(=O)O)[C@@H](C)O)[C@@H](C)O)NC1=O [BP3-4D3.11DEL] (H-AWEVCWDRHQGYICTTDS-OH; disulfide 5-14; N-terminus and C-terminus assumed)
- IC50 (IGFBP-3 [1]): 80 µM

Molecule: E3A/F49A: double mutant of IGF-1 combining point mutations E3A and F49A
- matrix synthesis in diseased human articular cartilage ([2]; 40 ng/ml): stimulated matrix synthesis in diseased human articular cartilage

Molecule: WPVAEWYLCN [BP3-24]
- IC50 (mut) / IC50 (wt) (IGFBP-3 [1]): >500

Molecule: CRAGPLQWLCEK-nh2 (CRAGPLQWLCEK-NH2; disulfide 1-10 (inferred)) [BP1-17]
- matrix synthesis, IGF-1 in combination with peptide ([2]; IGF-1 40 ng/ml, peptide 0.1 mg/ml): to some extent

Molecule: CSCC[C@H](NC(=O)[C@H](CC(N)=O)NC(=O)[C@@H]1CSSC[C@H](NC(=O)[C@@H](NC(=O)[C@H](CCC(=O)O)NC(=O)[C@H](CCC(=O)O)NC(=O)[C@H](CO)NC(=O)[C@H](C)N)C(C)C)C(=O)N[C@@H](Cc2c[nH]c3ccccc23)C(=O)N2CCC[C@H]2C(=O)N[C@@H](C(C)C)C(=O)N[C@@H](C)C(=O)N[C@@H](CCC(=O)O)C(=O)N[C@@H](Cc2c[nH]c3ccccc23)C(=O)N[C@@H](Cc2ccc(O)cc2)C(=O)N[C@@H](CC(C)C)C(=O)N1)C(=O)N[C@@H](Cc1c[nH]c2ccccc12)C(=O)NCC(=O)N[C@@H](CCCNC(=N)N)C(=O)O [4D3.3P] (H-ASEEVCWPVAEWYLCNMWGR-OH; disulfide 6-15; N-terminus and C-terminus assumed)
- IC50 (IGFBP-3 [1]): 5.6 µM
- IC50 (mut) / IC50 (wt) (IGFBP-3 [1]): 2.8

Molecule: CC(C)C[C@@H]1NC(=O)[C@H](CC(C)C)NC(=O)[C@H](CC(C)C)NC(=O)[C@H](CC(=O)O)NC(=O)[C@@H]2CCCN2C(=O)[C@H](CCCNC(=N)N)NC(=O)[C@H](C(C)C)NC(=O)[C@H](CC(C)C)NC(=O)[C@H](CCC(N)=O)NC(=O)[C@@H](NC(=O)CCC(=O)O)CSSC[C@@H](C(=O)N[C@@H](CCC(N)=O)C(N)=O)NC1=O [BP3-107] (Suc-CQLVRPDLLLCQ-NH2; disulfide 1-11)
- IC50 (IGFBP-3 [1]; inhibition of 40 nM IGFBP-3 binding to immobilized IGF-1): 100 µM

Molecule: CC(C)C[C@@H]1NC(=O)[C@H](Cc2ccc(O)cc2)NC(=O)[C@H](Cc2c[nH]c3ccccc23)NC(=O)[C@H](CCC(=O)O)NC(=O)[C@H](C)NC(=O)[C@H](C(C)C)NC(=O)[C@@H]2CCCN2C(=O)[C@H](Cc2c[nH]c3ccccc23)NC(=O)[C@@H](N)CSSC[C@@H](C(=O)N[C@@H](CC(N)=O)C(=O)O)NC1=O [BP3-25] (H-CWPVAEWYLCN-OH; disulfide 1-10; N-terminus and C-terminus assumed)
- IC50 (IGFBP-3 [1]): 46 µM
- IC50 (mut) / IC50 (wt) (IGFBP-3 [1]): 23

Molecule: Y31C: point mutant of IGF-1 with a single unpaired cysteinyl thiol for site-specific immobilization
- IGFBP-3 IC50 (IGFBP-3 [3]; phage display, soluble IGFBP-3 competitor): wild-type-like affinities
- IGFBP-1 IC50 (IGFBP-1 [4]; phage display, soluble IGFBP-1 competitor): wild-type-like affinities
- IGFBP-1 ka (IGFBP-1 [5]): 3.9 ± 0.4 ×10^4 M^−1
- IGFBP-1 kd (IGFBP-1 [5]): 3.8 ± 0.1 ×10^−4 s^−1

B1: Ala(1-3)-IGF: triple alanine mutant substituting the first three N-terminal amino acids of IGF-1 (protein)
chain: AAATLCGAELVDALQFVCGDRGFYFNKPTGYGSSSRRAPQTGIVDECCFRSCDLRRLEMYCAPLKPAKSVSGGGSGSGDFDYEKMANANKGAMTENADENALQSDAKGKLDSVATDYGAAIDGFIGDVSGLANGNGATGDFAGSNSQMAQVGDGDNSPLMNNFRQYLPSLPQSVECRPFVFSAGKPYEFSIDCDKINLFRGVFAFLLYVATFMYVFSTFANILRNKES
- relative specificity (IGFBP-1 [6]): 7.3
- IGFBP-3 relative IC50 (IGFBP-3 [3]; [7]): no change in IGFBP-3 affinity
- IGFBP-1 Relative IC50 (IGFBP-1 [4]; [7]): decreased IGFBP-1 affinity similar to E3A
